Source: publication PMC4569258

Assays:
[1] = MTT cytotoxicity test in AZ-AHR cells; assay type: cell-based; details: human
Experimental: (§1) Prior to gene reporter assays, we examined the cytotoxicity of tested compounds in AZ-AHR, AZ-GR and LS180 cell lines. For this purpose, the cells were incubated for 24 h with individual enantiomers of atorvastatin, fluvastatin and rosuvastatin at concentrations ranging from 100 pM to 100 μM. The vehicle was DMSO (0.1% v/v). After the treatment, a conventional MTT test was performed and the values of IC50 were calculated.
(§2) Fig 2 Cytotoxicity of statin enantiomers in human cancer cell lines. […] After the treatment, a conventional MTT test was performed and absorbance was measured at 540 nm. Treatments were performed in triplicates.

[2] = MTT cytotoxicity test in AZ-GR cells; assay type: cell-based; details: human, AZ-GR cells (HeLa-derived GR luciferase reporter cell line)
Experimental: as §1, §2

[3] = target: T1, aryl hydrocarbon receptor (AhR) (Homo sapiens, UniProt P35869); test: cell-based
T1 sequence (P35869 11-848): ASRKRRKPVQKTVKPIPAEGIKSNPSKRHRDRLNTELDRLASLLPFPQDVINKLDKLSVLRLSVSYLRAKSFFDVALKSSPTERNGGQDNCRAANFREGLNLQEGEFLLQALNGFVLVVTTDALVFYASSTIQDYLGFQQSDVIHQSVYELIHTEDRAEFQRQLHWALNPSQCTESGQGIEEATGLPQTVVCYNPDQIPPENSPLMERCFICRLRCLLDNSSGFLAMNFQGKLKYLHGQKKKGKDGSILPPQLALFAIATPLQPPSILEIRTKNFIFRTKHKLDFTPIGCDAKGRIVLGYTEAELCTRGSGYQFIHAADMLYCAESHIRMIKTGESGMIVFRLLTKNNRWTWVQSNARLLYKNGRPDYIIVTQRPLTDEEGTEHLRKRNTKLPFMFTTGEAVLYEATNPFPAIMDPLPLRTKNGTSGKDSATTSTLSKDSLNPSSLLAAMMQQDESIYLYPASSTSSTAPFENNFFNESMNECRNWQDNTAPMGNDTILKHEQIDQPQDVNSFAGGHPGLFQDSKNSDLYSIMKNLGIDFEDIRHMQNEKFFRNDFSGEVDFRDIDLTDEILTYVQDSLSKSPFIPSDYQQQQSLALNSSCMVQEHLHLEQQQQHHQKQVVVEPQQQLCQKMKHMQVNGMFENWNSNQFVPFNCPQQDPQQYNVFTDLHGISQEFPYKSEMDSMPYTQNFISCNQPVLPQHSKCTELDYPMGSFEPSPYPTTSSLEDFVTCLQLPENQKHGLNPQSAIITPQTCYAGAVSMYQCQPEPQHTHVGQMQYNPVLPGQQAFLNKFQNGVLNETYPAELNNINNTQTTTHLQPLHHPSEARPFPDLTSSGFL
Experimental: (§3) A stably transfected gene reporter cell line AZ-AHR, derived from human hepatoma HepG2 cells transfected with a construct containing several AhR binding sites upstream of a luciferase reporter gene, was used for assessment of AhR transcriptional activity [20].
(§4) Transcriptional activity of AhR was assessed in human gene reporter cell line AZ-AHR incubated for 24 h with tested compounds.
(§5) AZ-AHR cells were seeded in 96-well plates and stabilized for 16 h and then incubated for 24 h with enantiopure forms of atorvastatin, rosuvastatin and fluvastatin in concentration ranging from 10^−10 M to 10^−4 M in the absence (agonist mode–upper panels) or presence (antagonist mode–lower panels) of dioxin (TCDD; 5 nM). The vehicle was DMSO (0.1% v/v). After the treatments, cells were lysed and luciferase activity was measured. Treatments were performed in triplicates. Data are expressed as a fold induction of luciferase activity over control cells (agonist mode) or as a percentage of maximal activation attained by TCDD (antagonist mode). The values of EC50 and IC50 from n independent cell passages were calculated where appropriate and the average values are indicated in plots. Representative gene reporter assays are shown.

[4] = target: T2, pregnane X receptor (PXR) (Homo sapiens, UniProt O75469); details: 100 μM concentration, agonist mode
T2 sequence (O75469 1-434): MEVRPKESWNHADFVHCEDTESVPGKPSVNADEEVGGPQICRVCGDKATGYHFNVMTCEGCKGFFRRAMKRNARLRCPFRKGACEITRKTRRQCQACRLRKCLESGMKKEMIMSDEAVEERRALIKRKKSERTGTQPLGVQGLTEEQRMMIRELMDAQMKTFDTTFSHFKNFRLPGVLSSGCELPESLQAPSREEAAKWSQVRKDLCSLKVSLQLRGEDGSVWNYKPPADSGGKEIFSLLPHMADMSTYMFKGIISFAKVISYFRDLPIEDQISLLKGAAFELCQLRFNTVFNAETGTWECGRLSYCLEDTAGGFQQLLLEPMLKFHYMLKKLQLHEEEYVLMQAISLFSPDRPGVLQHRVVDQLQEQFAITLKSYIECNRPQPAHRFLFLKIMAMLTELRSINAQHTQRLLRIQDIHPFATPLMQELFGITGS

[5] = target: T1, aryl hydrocarbon receptor (AhR); test: AhR gene reporter assay in AZ-AHR cells; details: 24 h
Experimental: as §3, §4, §5

[6] = parameters: method as in PMID 19033449, PMID 16480934; details: humans, ratio to (+)3R,5S-fluvastatin; cited from earlier work
[7] = MTT cytotoxicity test in LS180 cells; assay type: cell-based; details: human, LS180 colon adenocarcinoma cells
Experimental: as §1, §2

CYP2C9 = system: CYP2C9; parameters: method as in PMID 8737761; details: ratio to (+)3R,5S-fluvastatin; cited from earlier work

Q: Which IC50 at 24 h [1] does the source give for CC(C)n1c(C=CC(O)CC(O)CC(=O)O)c(-c2ccc(F)cc2)c2ccccc21 (stereo not drawn) [3S5R-fluvastatin, 3S5R- fluvastatin] here?
A: The IC50 at 24 h was greater than 100 µM.

Q: And the IC50 at 24 h [2]?
A: Its IC50 at 24 h is greater than 100 µM.

Q: What about the EC50 [3] of the same compound?
A: Its EC50 is 14.4 ± 4.2 µM.

Q: What about the “efficacy: average induction of PXR luciferase activity” value [4] of the same compound?
A: The value was “approx. 5 fold”.

Q: What about the IC50 ([5]; AhR antagonist IC50, antagonist mode, in presence of TCDD 5 nM) of the same compound?
A: The IC50 was greater than 100 µM.

Q: What about the “effect on AhR-dependent luciferase activity (agonist mode), in words” value ([5]; agonist mode) of the same compound?
A: The value was “slightly increased luciferase activity”.

Q: And the “AUC value compared to (+)3R,5S-fluvastatin” value [6]?
A: The value was 1.8 times.

Q: And the IC50 at 24 h [7]?
A: Its IC50 at 24 h is greater than 100 µM.

Q: And the “Ki values of CYP2C9 inhibition compared to (+)3R,5S-fluvastatin” value (CYP2C9)?
A: Its value is “four to five times higher”.
